From patent publication US9295629B2, “WNT family-derived peptides and use thereof” (CAREGEN CO., LTD., priority 2011, dated 2016)
Where no end group is shown, it is not given here.

Tests used:
NIH3T3 fibroblasts = experiment: SRB colorimetric cell growth assay, fibroblasts; format: cell-based; settings: for growth of fibroblasts, microscope image: NIH3T3, 72 hr, observed under a microscope (FIG. 3b); for effect on the growth of fibroblasts: NIH3T3, peptide 1 ng/ml-10 μg/ml, 72 hr, SRB absorbance at 590 nm (FIG. 2b)
Description: (§1) In order to evaluate three peptides prepared in Preparation Examples 1-2 whether they have similar activities of growth factor, SRB (Sulforhodamine B; Sigma-Aldrich) colorimetric assay was carried out using HaCaT kerationcytes (Korean Cell Line Bank) and NIH3T3 fibroblasts (Korean Cell Line Bank) according to Rizzino et al. method (Rizzino, et al. Cancer Res., 48: 4266 (1988)).
(§2) HaCaT ketatinocytes, NIH3T3 fibroblasts, and HHFDPC hair follicle cells (cell science) were cultured in 250 ml-flasks containing DMEM (Dulbecco's Modified Eagle's minimal essential media; Gibco, USA) supplemented with 10% FBS (fetal bovine serum; Sigma). Cells cultured were treated with 1% trypsin solution to detach cells from the bottom of culture flasks and centrifuged to collect cell pellets. After cells were resuspended in DMEM not containing FBS, its aliquot (3×10^3 cells) was added to each well of 96-well plates and cultured under 5% CO2 for 24 hr at 37° C. After 24-hr culture, the medium was changed with a fresh medium without serum and cells were incubated with empty sample (for normalization) and peptides synthesized (1 ng/ml, 10 ng/ml, 100 ng/ml, 1 μg/ml and 10 μg/ml) aseptically dissolved in 10% DMSO for 72 hr under the same conditions as described above. After removing supernatants, cells were fixed with ethanol and then washed three times using PBS (phosphate buffered saline), followed by incubation with SRB solution. Cells were sufficiently washed with 1% acetic acid and observed under a microscope to find living cell condition. In addition, absorbance at 590 nm was measured to analyze cell viability. Meanwhile, after culturing under the same conditions, the tissue was immunostained by an immunohistochemical assay with ki-67 antibody (SantaCruz, USA) and the amount of ki-67 protein as a cell proliferation marker was observed.

[1] = system: HHFDPC hair follicle cells; experiment: SRB colorimetric cell growth assay, hair follicle cells; format: cell-based; settings: 72 hr; for growth of cells in hair follicles, microscope image: observed under a microscope (FIG. 3c); for effect on the growth of cells in hair follicles: peptide 1 ng/ml-10 μg/ml, SRB absorbance at 590 nm (FIG. 2c)
Description: as §2

HaCaT keratinocytes = experiment: SRB colorimetric cell growth assay, keratinocytes; format: cell-based; settings: 72 hr; for growth of keratinocytes, microscope image: observed under a microscope (FIG. 3a); for effect on the growth of keratinocytes: peptide 1 ng/ml-10 μg/ml, SRB absorbance at 590 nm (FIG. 2a)
Description: as §1, §2

β-catenin = experiment: Western blot of β-catenin in HaCaT keratinocytes; format: cell-based; settings: for expression level / activity of β-catenin: peptide 5 hr, Western blot (FIG. 5a); for β-catenin expression / activity in the presence of DKK-1: with DKK-1 (WNT inhibitor), Western blot (FIG. 5b)
Description: (§3) HaCaT kerationcytes cultured for 48 hr were incubated with the peptides synthesized in preparation Example 1 for 5 hr. The phosphorylation level of LRP5, which is the receptor of WNT protein and expression level of β-catenin, which is the signal molecule of WNT protein were examined respectively. The amount of Phopho-LRP5 and β-catenin were measured by Western blot analysis using an antibody against Phopho-LRP5 (Cell signaling) and β-catenin (SantaCruz, USA). In addition, the expression level of LEF-1 transcription factor was also observed, which is enhanced by β-catenin. […] First of all, it was shown that β-catenin activity is observed by treatment with the peptide of the present invention in spite of the presence of DKK-1 as a WNT inhibitor and a β-catenin signaling inhibitor (FIG. 5b). It was also observed that the expression level of LEF-1 transcription factor was increased by the treatment of the present peptides (FIG. 6).

LRP5 = experiment: Western blot of Phospho-LRP5 in HaCaT keratinocytes; format: cell-based; settings: peptide 5 hr, Western blot (FIG. 4)
Description: as §3

fibronectin = experiment: Fibronectin ELISA in NIH3T3 fibroblasts; format: cell-based; settings: for fibronectin expression with the lapse of time: NIH3T3, peptide 1 μg/ml, 3, 10, 24 or 48 hr, ELISA (FIG. 7a); for fibronectin expression in the presence of DKK-1: NIH3T3, treated with both DKK-1 protein and peptide, ELISA (FIG. 7b)
Description: To verify whether the peptides synthesized in preparation Example 1 enhances the expression of fibronectin as a WNT target protein, NIH3T3 fibroblasts (4×10^3 cells) was added to each well of 96-well plates and cultured under 5% CO2 for 24 hr at 37° C. After 24-hr culture, the medium was changed with a fresh medium without serum and cells were treated with empty sample (for normalization), three peptides synthesized (1 μg/ml) and peptide complex (1 μg/ml) aseptically dissolved in 10% DMSO for 3 hr, 10 hr, 24 hr or 48 hr under the same conditions as described above. After 72 hr incubation, the cell culture was collected and the expression level of fibronectin was measured using Fibronectin ELISA kit (R&D systems, USA).
In addition, after DKK-1 protein was treated and cultured under the same conditions, the expression level of fibronectin was examined.

C57BL/6 mouse back skin = experiment: Mouse hair growth, topical peptide nanosome; format: in vivo; settings: nanosome topically twice every day for 15 days (FIG. 8)
Description: The peptide synthesized in Preparation Example 1 was formulated into nanosome. Afterwards, the back of C57BL/6 mouse was partially removed and then the skin was topically administered with the nanosome twice every day for 15 days.
50 mg of each peptide synthesized in preparation Examples was dissolved in 500 ml of distilled water by sufficient agitation. The peptide solution was mixed with 5 g lecithin, 0.3 ml sodium oleate, 50 ml ethanol and a small amount of oils, and its volume was adjusted with distilled water to 1 L. The resulting solution was subjected to a microfluidizer under high pressure for emulsification, thereby providing nanosomes having about 100-nm size. The nanosomes were prepared to have a final concentration of about 50 ppm and used as ingredients for cosmetics.

## LCCGRGHRTRTQR (cysteine pairing not given here) [peptide-1]
NIH3T3 fibroblasts
  growth of fibroblasts, microscope image: promote the growth
  effect on the growth of fibroblasts: stimulatory effect
[1]
  growth of cells in hair follicles, microscope image: promote the growth
  effect on the growth of cells in hair follicles: stimulatory effect
HaCaT keratinocytes
  growth of keratinocytes, microscope image: promote the growth
  effect on the growth of keratinocytes: stimulatory effect
β-catenin
  expression level / activity of β-catenin: enhancement
  β-catenin expression / activity in the presence of DKK-1: β-catenin expression in spite of the presence of DKK-1
LRP5
  phosphorylation level of LRP5: enhancement
fibronectin
  fibronectin expression with the lapse of time: gradually elevated
  fibronectin expression in the presence of DKK-1: restored and enhanced
C57BL/6 mouse back skin
  hair growth on mouse back skin: activity for promoting hair growth

## peptide-2: WNT-derived peptide, amino acid sequence LCCGRGHNAR (WNT-derived peptide 2)
NIH3T3 fibroblasts
  growth of fibroblasts, microscope image: promote the growth
  effect on the growth of fibroblasts: stimulatory effect
[1]
  growth of cells in hair follicles, microscope image: promote the growth
  effect on the growth of cells in hair follicles: stimulatory effect
HaCaT keratinocytes
  growth of keratinocytes, microscope image: promote the growth
  effect on the growth of keratinocytes: stimulatory effect
β-catenin
  expression level / activity of β-catenin: enhancement
  β-catenin expression / activity in the presence of DKK-1: β-catenin expression in spite of the presence of DKK-1
LRP5
  phosphorylation level of LRP5: enhancement
fibronectin
  fibronectin expression with the lapse of time: gradually elevated
  fibronectin expression in the presence of DKK-1: restored and enhanced
C57BL/6 mouse back skin
  hair growth on mouse back skin: activity for promoting hair growth

## peptide-3: WNT-derived peptide, amino acid sequence AERRRELCRC (WNT-derived peptide 3)
NIH3T3 fibroblasts
  growth of fibroblasts, microscope image: promote the growth
  effect on the growth of fibroblasts: stimulatory effect
[1]
  growth of cells in hair follicles, microscope image: promote the growth
  effect on the growth of cells in hair follicles: stimulatory effect
HaCaT keratinocytes
  growth of keratinocytes, microscope image: promote the growth
  effect on the growth of keratinocytes: stimulatory effect
β-catenin
  expression level / activity of β-catenin: enhancement
  β-catenin expression / activity in the presence of DKK-1: β-catenin expression in spite of the presence of DKK-1
LRP5
  phosphorylation level of LRP5: enhancement
fibronectin
  fibronectin expression with the lapse of time: gradually elevated
  fibronectin expression in the presence of DKK-1: restored and enhanced
C57BL/6 mouse back skin
  hair growth on mouse back skin: activity for promoting hair growth

## peptide-4: WNT-derived peptide, amino acid sequence LCCGRGHNVL (WNT-derived peptide 4)
NIH3T3 fibroblasts
  growth of fibroblasts, microscope image: promote the growth
  effect on the growth of fibroblasts: stimulatory effect
[1]
  growth of cells in hair follicles, microscope image: promote the growth
  effect on the growth of cells in hair follicles: stimulatory effect
HaCaT keratinocytes
  growth of keratinocytes, microscope image: promote the growth
  effect on the growth of keratinocytes: stimulatory effect
β-catenin
  expression level / activity of β-catenin: enhancement
  β-catenin expression / activity in the presence of DKK-1: β-catenin expression in spite of the presence of DKK-1
LRP5
  phosphorylation level of LRP5: enhancement
fibronectin
  fibronectin expression with the lapse of time: gradually elevated
  fibronectin expression in the presence of DKK-1: restored and enhanced
C57BL/6 mouse back skin
  hair growth on mouse back skin: activity for promoting hair growth
